Measurements reported in article PMC9952066 (2023).

How the values were obtained:
[1] = test system: r-PQS4 (FEN1 rG4) (RNA, G4) AGGGGCCUGCGGGGACCUGGUGUGGGUGGAGUGGGGAC; experiment: UV-Vis absorption shift; conditions: 100 mM KCl, 12 mM NaCl; 50 mM Tris-HCl pH 7.4; pre-folded RNA 5 μM; TMPyP4 printed as 100 mM
[2] = test system: r-PQS4 (FEN1 rG4) (RNA, G4) AGGGGCCUGCGGGGACCUGGUGUGGGUGGAGUGGGGAC; experiment: CD titration (loss of 265 nm ellipticity); conditions: 100 mM KCl, 12 mM NaCl; 50 mM Tris-HCl pH 7.4; RNA 5 μM; TMPyP4 added before annealing (legend: pre-folded); disrupts G4
[3] = test system: FAM-labeled FEN1 rG4 (RNA, G4) AGGGGCCUGCGGGGACCUGGUGUGGGUGGAGUGGGGAC; experiment: native PAGE mobility (G4 unfolding); conditions: 100 mM KCl, 12 mM NaCl; 100 mM KCl in gel; 12% gel, 4 °C; RNA 5 μM; TMPyP4 unfolds rG4

binding [1]: yes
binding [2]: yes
binding [3]: yes
Compound: C[n+]1ccc(-c2c3nc(c(-c4cc[n+](C)cc4)c4ccc([nH]4)c(-c4cc[n+](C)cc4)c4nc(c(-c5cc[n+](C)cc5)c5ccc2[nH]5)C=C4)C=C3)cc1
